Results taken from patent US20240382626A1, “IRRADIATION AMENABLE LIPOSOMAL DYE AGGREGATES AND METHODS OF SYNTHESIS AND USE THEREOF” (Board of Regents, The University of Texas System, priority 2023, published 2024).
“Also recorded” adds a separate entry of the source.

Key:
[1] = In vitro photothermal heating with 808 nm and 852 nm lasers; details: 808 nm laser
Description: To assess the heating capacity of IcG and L-JA solutions, two different laser setups were utilized. All laser components including diodes, mounts, fiber optic cables, lens, and adapters were acquired from ThorLabs (Thorlabs Inc., Newton, NJ, USA) Two different laser diodes, one 808 nm the other 852 nm, were mounted, aligned, and focused in view of a high-resolution IR camera and tracked using accompanying software (Teledyne FLIR, Wilsonville, OR, USA). The 852 nm laser system included an optical isolator (ThorLabs) in the light path as recommended by the manufacturer, but otherwise the systems were identical. Laser power was calibrated to 1 W/cm^2 for both lasers and across all experiments. All experiments were conducted in 24- or 96-well plates filled with corresponding contrast agent solutions placed at the focus of the laser and IR camera.

[2] = tested on: mouse kidney and surrounding tissue; test: In vivo contrast enhancement and circulation by photoacoustic imaging; set-up: species or system mice; details: systemic administration
Description: Particle circulation was monitored by imaging the mouse kidney and surrounding tissue. The kidney is a high blood flow organ that has the distinct advantage of being easily and rapidly identifiable using ultrasound imaging. Simple setup and identification decreases the amount of time animals are under anesthesia and limits any potential artificial lowering of SO2 due to prolonged exposure to anesthetic agents. Once prepped, mice placed in the imaging system were imaged with power-doppler to confirm blood flow and baseline values for SO2 and contrast agent signals (FIG. 13). Following a bolus injection of a 5 mg/kg dose of contrast agent via the tail vein, the same region was monitored at varying time points. After processing with FUJIFILM VisualSonics' proprietary spectral unmixing software the images were analyzed using in-house MATLAB software. Power-doppler images guide the placement of ROIs around areas of high blood flow allowing isolation and calculation of SO2 and contrast agent signal over the course of imaging.
To assess their performance in vivo, particles were injected intravenously via the tail vein. Particle circulation was monitored by imaging the mouse kidney and surrounding tissue. […] Following a bolus injection of contrast agent via the tail vein, the same region was monitored at multiple time points. […]

HUVECs = test: MTS cytotoxicity assay; type: cell-based; details: 24 hr incubation, p<0.05
Description: The cytotoxicity of L-JA, IcG-JA, and IcG was evaluated on HUVECs and HEK-293T cell lines. The HUVECs were cultured in MCDB-131 medium supplemented with 10% (v/v) fetal bovine serum, 1% L-glutamine, 1% penicillin-streptomycin, and 1% endothelial cell growth supplement. The HEK-293T cells were cultured in Dulbecco's modified Eagle medium (DMEM) supplemented with 10% (v/v) fetal bovine serum and 1% penicillin-streptomycin. Both cell lines were incubated at 37° C. with 5% CO2 in a humidified atmosphere. The HUVEC and HEK-293T cells were seeded at the density of 10,000 cells per well and 5,000 cells per well in 96 well plates. After 24 hours, the culture media was replaced with fresh media containing L-JA, IcG-JA, and IcG at the concentration of 0.25 mM, 0.2 mM, 0.1 mM, and 0.05 mM. Cells incubated without particles were used as a control group. After 24 hours, the culture media was replaced with […] of fresh media. 20 μl of a mixture of [3-(4,5-dimethylthiazol-2-yl)-5-(3-carboxymethoxyphenyl)-2-(4-sulfophenyl)-2H-tetrazolium] (MTS) and phenazine ethosulfate (PES) was then added to each well. The cells were further incubated for 4 hours at 37° C. The absorbance signal at 490 nm was measured using a BioTek plate reader.

[3] = Photostability during pulsed-laser photoacoustic imaging; type: physicochemical
Description: All photoacoustic imaging was performed using the VEVO LAZR-X and F2 Systems (FUJIFILM VisualSonics, Toronto, Canada). The system was calibrated per manufacturer instructions prior to all experiments. Equal concentrations of IcG, IcG-JA, and L-JA were loaded into the plastic tubes before coupling the imaging phantom to the transducer with ultrasound gel. For base characterization, a full spectral scan from 680 nm to 970 nm was performed. Photostability measurements were obtained by imaging at either 800 nm or 890 nm for 30 minutes. At five-minute intervals, which equated to nearly every 1400 pulses (˜280 pulses per minute), the scan was paused to allow for a full spectral scan to be performed. RAW data files from the system were exported and were analyzed using custom software written in MATLAB.

time until PA signal fully quenches ([3]; 800 nm laser pulses): 25 min
photoacoustic signal drop ([3]; 800 nm laser pulses, just under 5 pulses per second, after just over 5 minutes / between 5 and 10 minutes): more than 50%
photodegradation (in words) ([3]; 30 minutes of imaging at 800 nm): completely photodegraded
Compound: CC1(C)C(/C=C/C=C/C=C/C=C2\N(CCCCS(=O)(=O)O)c3ccc4ccccc4c3C2(C)C)=[N+](CCCCS(=O)(=O)[O-])c2ccc3ccccc3c21 [IcG, Indocyanine Green]
behaviour on repeated (cyclic) laser heating (in words) [1]: can only be heated once
clearance / circulation (in words) [2]: cleared from circulation within an hour; also recorded: fully cleared over the course of a few minutes
concentration at which significant cytotoxicity relative to control occurs (HUVECs): 0.2 mM
